Earlier results, collected in patent publication US10136666B2, “Deep eutectic solvents and flavour generation” (NESTEC S.A., priority 2013, dated 2018).

Conditions: from literature values

Compound: NCCC(=O)O [β-alanine]
- amount that would dissolve in 60 g water: about 33 g
